Reference: PubChem BioAssay (NCI)
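Protocol summary: plate cells (96-well), add compound at 5 concentrations, incubate 48 h, interpolate endpoints linearly. GI50 is the concentration that inhibits growth by half. TGI: total growth inhibition.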

Experiments:
Assay in all cases: DTP human tumour cell line panel, 48 h
EKVX NSCLC = tested on: EKVX NSCLC
SR leukemia = tested on: SR leukemia
NCI/ADR-RES ovarian = tested on: NCI/ADR-RES ovarian
K-562 leukemia = tested on: K-562 leukemia
MDA-MB-231 breast = tested on: MDA-MB-231 breast
M14 melanoma = tested on: M14 melanoma
UACC-62 melanoma = tested on: UACC-62 melanoma
U251 CNS = tested on: U251 CNS
A549 NSCLC = tested on: A549 NSCLC
DMS 114 small cell lung = tested on: DMS 114 small cell lung

Structure (SMILES)	TGI (EKVX NSCLC)	TGI (SR leukemia)	TGI (NCI/ADR-RES ovarian)	TGI (K-562 leukemia)	TGI (MDA-MB-231 breast)	TGI (M14 melanoma)	TGI (UACC-62 melanoma)	TGI (U251 CNS)	TGI (A549 NSCLC)	GI50 (EKVX NSCLC)	GI50 (SR leukemia)	GI50 (K-562 leukemia)	GI50 (DMS 114 small cell lung)	TGI (DMS 114 small cell lung)	GI50 (M14 melanoma)	GI50 (UACC-62 melanoma)	GI50 (A549 NSCLC)	GI50 (MDA-MB-231 breast)	GI50 (NCI/ADR-RES ovarian)	GI50 (U251 CNS)
CC1(C)CC(=O)C2=C(C1)OC1=C(CC(C)(C)CC1=O)C2c1ccccc1Cl (stereo unspecified)	> 100 µM	> 100 µM	> 100 µM	> 100 µM	> 100 µM	> 100 µM	> 100 µM	> 100 µM	> 100 µM	–	–	–	–	–	–	–	–	–	–	–
O=C(CCc1nnc2s/c(=C\c3ccc(Cl)cc3Cl)c(=O)n12)Nc1cc(Cl)c(Cl)cc1Cl	> 100 µM	> 100 µM	–	> 100 µM	–	> 100 µM	> 100 µM	> 100 µM	> 100 µM	> 100 µM	> 100 µM	> 100 µM	> 100 µM	> 100 µM	> 100 µM	> 100 µM	> 100 µM	–	–	–
Cc1cccc2ns[s+]c12	> 100 µM	–	–	81.4 µM	–	> 100 µM	> 100 µM	> 100 µM	> 100 µM	–	–	–	–	58.1 µM	–	–	–	–	–	–
O=C1N[C@@H](c2c[nH]c3ccc(Br)cc23)C(=O)N[C@H]1c1c[nH]c2ccc(Br)cc12	29.7 µM	19.3 µM	> 100 µM	18.9 µM	26.3 µM	21.2 µM	23.2 µM	21.9 µM	33.8 µM	–	–	–	–	–	–	–	–	–	–	–
CC(=O)CC(=O)Nn1c(-c2cccs2)nc2ccc(I)cc2c1=O	> 66.1 µM	> 100 µM	> 94.4 µM	> 100 µM	63.7 µM	> 100 µM	> 85 µM	> 100 µM	> 100 µM	–	–	–	–	–	–	–	–	16.4 µM	–	–
Nc1nc(NC(=O)C2=NS(=O)(=O)c3cc(S(N)(=O)=O)c(Cl)cc3N2)n[nH]1	> 100 µM	> 100 µM	–	> 100 µM	–	> 100 µM	> 100 µM	> 100 µM	> 100 µM	–	–	–	–	> 100 µM	–	–	–	–	–	–
Clc1ccc(CCn2ccc3ccccc32)c(Cl)c1	> 100 µM	> 100 µM	> 100 µM	> 100 µM	> 100 µM	> 100 µM	> 100 µM	> 100 µM	> 100 µM	–	–	–	–	–	–	–	–	–	–	–
COC(=O)C(I(OS(=O)(=O)c1ccc(C)cc1)c1ccccc1)=P(c1ccccc1)(c1ccccc1)c1ccccc1	54.5 µM	49.7 µM	> 100 µM	> 100 µM	75.6 µM	32.4 µM	35.1 µM	40.7 µM	60.6 µM	–	–	–	–	–	–	–	–	–	–	–
CCC1(CC)C(=O)N(C(=O)c2ccc(Cl)cc2)N(C(=O)c2ccccc2Cl)C1=O	24.9 µM	> 100 µM	> 100 µM	> 100 µM	> 100 µM	> 100 µM	> 100 µM	> 100 µM	> 100 µM	–	–	–	–	–	–	–	–	–	–	–
COC(=O)c1ccc2[nH]c3c(c2c1)CC(=O)Nc1ccccc1-3	> 100 µM	25 µM	> 100 µM	97.7 µM	> 100 µM	> 100 µM	> 100 µM	94.6 µM	> 100 µM	–	–	–	–	–	–	–	–	–	–	–
COc1ccccc1C1C(Cl)C(=O)N1NC(=O)Cc1ccccc1 (stereo unspecified)	> 100 µM	> 100 µM	–	> 100 µM	–	> 100 µM	> 100 µM	> 100 µM	> 100 µM	–	–	–	–	> 100 µM	–	–	–	–	–	–
C=CC(C)(C)c1cc([C@@H]2COc3cc(O)ccc3C2=O)c(O)c(OC)c1OC	58.3 µM	> 100 µM	43 µM	> 100 µM	37.9 µM	31.2 µM	27.5 µM	26.8 µM	52 µM	–	–	–	–	–	–	–	–	–	–	–
Cc1ccc(-n2cc(-c3ccc(Cl)cc3)c3c(NNC(=S)NCc4ccccc4)ncnc32)cc1	73.5 µM	21.5 µM	32.8 µM	> 100 µM	59.5 µM	37.6 µM	64.8 µM	48.6 µM	41.1 µM	–	–	–	–	–	–	–	–	–	–	–
O=C1c2c(ccc3c2CCCC3)CC12Cc1ccccc1C2	> 95.9 µM	> 27.6 µM	> 100 µM	> 48.2 µM	52.7 µM	> 100 µM	> 100 µM	> 100 µM	> 92.6 µM	–	–	–	–	–	–	–	–	–	–	–
CN(C)CCCn1c2c(c3ccncc3c1=O)C(=O)c1ccccc1-2	48.3 µM	11.9 µM	11.6 µM	12.3 µM	7.7 µM	5.71 µM	3.74 µM	15.3 µM	38.6 µM	7.91 µM	0.313 µM	0.573 µM	–	–	1.6 µM	1.22 µM	1 µM	1.77 µM	0.803 µM	0.757 µM
CN1CCN(c2nc3c(c(=O)n(C)c(=O)n3C)n2C)CC1	> 100 µM	> 100 µM	> 100 µM	> 100 µM	> 100 µM	> 100 µM	> 100 µM	> 100 µM	> 100 µM	–	–	–	–	–	–	–	–	–	–	–
CSc1nc(Cl)c2c(n1)Sc1ncnn1C2O (stereo unspecified)	36.3 µM	> 100 µM	54.6 µM	30.6 µM	31.6 µM	29 µM	26.3 µM	33.9 µM	36.9 µM	–	–	–	–	–	–	–	–	–	–	–
COC(=O)c1cc(CNCCc2c[nH]c3ccccc23)on1	> 100 µM	> 100 µM	> 100 µM	> 100 µM	–	> 100 µM	> 100 µM	> 100 µM	> 100 µM	–	–	–	–	> 100 µM	–	–	–	–	–	–
COc1cc(OC)cc(N(C)Cc2cnc3nc(N)nc(N)c3c2C)c1	> 100 µM	> 100 µM	> 100 µM	> 100 µM	> 100 µM	55.4 µM	> 100 µM	> 100 µM	> 100 µM	–	–	–	–	–	–	–	–	–	–	–
C[C@H]1C(=O)C2=C[C@H]1CCC(=O)[C@]1(C)CCCC(C)(C)[C@H]1C[C@H]2O	31.9 µM	61.3 µM	74.2 µM	33.4 µM	20.2 µM	25.9 µM	> 100 µM	28.4 µM	43.6 µM	–	–	–	–	–	–	–	–	–	–	–
O=C1CSC(c2ccc(Cl)cc2)N1c1ccc(-n2c(-c3ccccc3)nc3ccccc3c2=O)cc1 (stereo unspecified)	> 100 µM	> 100 µM	> 100 µM	> 100 µM	> 100 µM	> 100 µM	> 100 µM	> 100 µM	> 100 µM	–	–	–	–	–	–	–	–	–	–	–
